Source: US10357486B2, “Treatment of cognitive impairment with PDE4 inhibitor” (Universiteit Maastricht, priority 2013, dated 2019)
“Also recorded” adds a separate entry of the source. Marks after values point to notes of the source that are not given here.

What was measured:
[1] = system: xylazine/ketamine induced α2-adrenergic receptor-mediated anesthesia; experiment: xylazine/ketamine induced α2-adrenergic receptor-mediated anesthesia test (emetic potential); format: in vivo; conditions: dose of 3.0 mg/kg
From the text: Since emesis is a typical side-effect of phosphodiesterase 4 inhibitors the emetic potential of roflumilast and rolipram was investigated in parallel using the xylazine/ketamine induced α2-adrenergic receptor-mediated anesthesia test. The results confirmed that the two phosphodiesterase 4 inhibitors have different effects on emesis.

[2] = system: scopolamine induced memory deficit in male Wistar rats; experiment: Object recognition task (ORT), scopolamine induced memory deficit; format: in vivo; conditions: for d2 (discrimination index): 1 h retention, mean (SEM)
From the text: The objective of this study is to evaluate the efficacious dose range of roflumilast with regard to cognitive improvement effects by using scopolamine induced memory deficit on object memory performance in male Wistar rats. Memory acquisition processes are investigated using the object recognition test (ORT).
Maintenance of Animals: Sixteen 3-4 month old male Wistar rats (Charles River, Sulzfeld, Germany) were used for the study. All animals were housed individually in standard green line Tecniplast IVC cages on stardust bedding. The animals were housed on a reversed 12/12 h light/dark cycle (lights on from 07:00 pm to 07:00 am) and had free access to food and water. The rats were housed and tested in the same room. A radio, playing softly, provided background noise in the room. All testing was performed between 09:00 am and 06:00 pm.
Preparation of Compounds: Drugs were prepared daily, except as indicated otherwise. Roflumilast (Takeda, Konstanz, Germany, MW 403.21) was dissolved in 98% methylcellulose solution (0.5% methylcellulose) and 2% Tween 80. Roflumilast in doses of 0 (vehicle), 0.0001, 0.0003, 0.001, 0.003, 0.01 and 0.03 mg/kg was administered intraperitoneally (ip, injection volume 1 ml/kg). Scopolamine (in form of scopolamine hydrobromide) was dissolved in saline (0.9% NaCl). Scopolamine hydrobromide was administered intraperitoneally at a dose of 0.1 mg/kg (ip, injection volume 1 ml/kg). Scopolamine and roflumilast were administered 30 min before T1.
Object Recognition Task in Rats: The ORT was performed as described elsewhere (Ennaceur and Delaceur, 1988, Behav Brain Res, Vol 31, pp 47-59; Akkerman et al; 2012, Behav Brain Res, Vol 232, pp 335-347). The apparatus consisted of a circular arena, 83 cm in diameter. The back half of the 40 cm high wall was made of grey PVC and the front was made of transparent PVC. Fluorescent red tubes and a light bulb provided a constant illumination of about 20 lux on the floor of the apparatus. The light intensity was equal in the different parts of the apparatus.
Two objects were placed in symmetrical positions at the mid-line between the gray and transparent halves of the arena, about ten centimeters away from wall. Four different sets of objects were available: 1) a standard 1 L brown transparent glass bottle (diameter 10 cm, height 22 cm) filled with water, 2) a metal cube (10.0×5.0×7.5 cm) with two holes (diameter 1.9 cm), 3) a cone consisting of a gray PVC base (maximal diameter 18 cm) with a collar on top made of brass (total height 16 cm), and 4) an aluminium cube with a tapering top (13.0×8.0×8.0 cm). Objects were presented to the animals in a balanced manner to avoid object or place biases. Rats were unable to displace the objects.
A test session comprised two trials, each with durations of 3 min. During the learning trial (T1) the apparatus contains two identical objects (object al and a2). Rats were always introduced into the apparatus with their nose towards the transparent wall segment (i.e. facing outwards to the front of the arena). Subsequently, rats were put back in its home cage for a 1 h interval. After the retention interval, rats were put back into the arena for the […] (T2). In T2, the two objects from T1 were replaced by one identical copy (a3) and a different novel object (b). The times spent in exploring each object during T1 and T2 were recorded manually on a personal computer.
Exploration was defined in the following manner: directing the nose to the object at a distance of no more than 2 cm and/or touching the object with the nose. Sitting on the object was not considered as exploratory behavior. In order to avoid the presence of olfactory cues, the objects were thoroughly cleaned with a 70% ethanol solution before each trial.
Prior to compound testing, the animals were handled for 5 min on 2 consecutive days and allowed to explore the ORT arena, also for 5 min. […]

## O=C(Nc1c(Cl)cncc1Cl)c1ccc(OC(F)F)c(OCC2CC2)c1 [roflumilast, N-(3,5-dichloropyridin-4-yl)-3-cyclopropylmethoxy-4-difluoromethoxybenzamide]
[1]
  emetic potential: tendency towards emetic potential
[2]; 0.0001 mg/kg ip + scopolamine
  d2 value compared to the vehicle condition (post-hoc Bonferroni t-test): significantly lower
[2]; 0.003 mg/kg ip + scopolamine
  d2 value compared to the scopolamine condition (post-hoc Bonferroni t-test): significantly higher
[2]; 0.01 mg/kg ip + scopolamine
  d2 value compared to the scopolamine condition (post-hoc Bonferroni t-test): significantly higher
[2]; 0.03 mg/kg ip + scopolamine
  d2 value compared to the scopolamine condition (post-hoc Bonferroni t-test): significantly higher
[2]; roflumilast 0.0001 mg/kg ip + scopolamine 0.1 mg/kg ip
  d2 (discrimination index): 0.05 (0.05)
[2]; roflumilast 0.0003 mg/kg ip + scopolamine 0.1 mg/kg ip
  d2 (discrimination index): 0.16 (0.06) #
[2]; roflumilast 0.001 mg/kg ip + scopolamine 0.1 mg/kg ip
  d2 (discrimination index): 0.27 (0.06) ###
[2]; roflumilast 0.003 mg/kg ip + scopolamine 0.1 mg/kg ip
  d2 (discrimination index): 0.43 (0.06) ###
[2]; roflumilast 0.01 mg/kg ip + scopolamine 0.1 mg/kg ip
  d2 (discrimination index): 0.34 (0.06) ###
[2]; roflumilast 0.03 mg/kg ip + scopolamine 0.1 mg/kg ip
  d2 (discrimination index): 0.30 (0.07) ###
[2]; single ip dose 0.0001 mg/kg, 0.0001 mg/kg
  effect on memory function in rats treated with scopolamine (ORT): No effect
[2]; single ip dose 0.0003 mg/kg, 0.0003 mg/kg
  effect on memory function in rats treated with scopolamine (ORT): intermediate memory improvement; also recorded: increasingly less efficacy
[2]; single ip dose 0.001 mg/kg, 0.001 mg/kg
  effect on memory function in rats treated with scopolamine (ORT): intermediate memory improvement; also recorded: increasingly less efficacy
[2]; single ip dose 0.003 mg/kg, 0.003 mg/kg
  effect on memory function in rats treated with scopolamine (ORT): fully restore memory function
[2]; single ip dose 0.01 mg/kg
  effect on memory function in rats treated with scopolamine (ORT): increasingly less efficacy
[2]; single ip dose 0.03 mg/kg
  effect on memory function in rats treated with scopolamine (ORT): increasingly less efficacy
